Converted amounts (≈) assume the structure as drawn.
Experiments:
Assay in all cases: MIC on standard strains, standard method of Japan Society of Chemotherapy
Format in all cases: cell-based
P. aeruginosa NCTC 10490 = details: Pseudomonas aeruginosa, NCTC10490, P. aeruginosa NCTC 10490; read-out: MIC
Description: (§1) Antimicrobial activity of the compounds of the present invention were measured using CTM (cefotiam) and FMOX (flomoxef) as control drugs in accordance with the standard method of Japan Society of Chemotherapy. Of the 25 standard strains used in this test, Staphylococcus aureus 167 and Staphylococcus aureus 195 belong to MRSA.
(§2) In these tables, drugs tested are shown by the corresponding examples in which they were synthesized.

A. faecalis ATCC 3750 = details: Alcaligenes faecalis, ATCC3750, A. faecalis ATCC 3750; read-out: MIC
Description: as §1, §2

S. aureus 195 = details: Staphylococcus aureus; S. aureus 195 (MRSA)
Description: as §1, §2

B. subtilis ATCC 6633 = details: Bacillus subtilis, ATCC6633, B. subtilis ATCC 6633; read-out: MIC
Description: as §1, §2

S. aureus 209p JC-1 = details: Staphylococcus aureus, 209P, read-out: MIC
Description: as §1, §2

M. luteus ATCC 9341 = details: Micrococcus luteus, ATCC9341
Description: as §1, §2

A. calcoaceticos T59 = details: read-out: MIC
Description: as §1, §2

P. cepacia = details: Burkholderia cepacia, read-out: MIC
Description: as §1, §2

S. aureus Smith = details: Staphylococcus aureus, read-out: MIC
Description: as §1, §2

K. pneuminiae IFO 3317 = test system: K. pneuminiae IFO 3317
Description: as §1, §2

E. cloacae Nek39 = details: Enterobacter cloacae, NEK39, E. cloacae Nek39; read-out: MIC
Description: as §1, §2

S. aureus 167 = details: Staphylococcus aureus; S. aureus 167 (MRSA)
Description: as §1, §2

C. freundii ATCC 8090 = details: Citrobacter freundii, ATCC8090, C. freundii ATCC 8090; read-out: MIC
Description: as §1, §2

E. coli CSH2(RK1) = details: Escherichia coli
Description: as §1, §2

E. cloacae ATCC 13407 = details: Enterobacter cloacae, ATCC13407, E. cloacae ATCC 13407; read-out: MIC
Description: as §1, §2

E. coli CSH2(RE45) = details: Escherichia coli
Description: as §1, §2

M. morganii IFO 3848 = details: Morganella morganii, IFO3848
Description: as §1, §2

E. coli NHIJ JC-2 = details: Escherichia coli, NHIJJC2
Description: as §1, §2

P. vulugaris OX-19 = test system: P. vulugaris OX-19
Description: as §1, §2

S. marcescens No. 16-2 = details: Serratia marcescens, NO.162
Description: as §1, §2

P. aeruginosa AKR17 = details: Pseudomonas aeruginosa
Description: as §1, §2

S. marcescens IAM 1184 = details: Serratia marcescens, IAM1184, S. marcescens IAM 1184; read-out: MIC
Description: as §1, §2

K. pneuminiae No. 42 = test system: K. pneuminiae No. 42
Description: as §1, §2

P. mirabilis IFO 3849 = details: Proteus mirabilis, IFO3849, P. mirabilis IFO 3849; read-out: MIC
Description: as §1, §2

S. epidemidis IAM 1296 = test system: S. epidemidis IAM 1296
Description: as §1, §2

SMILES | MIC (P. aeruginosa NCTC 10490) | MIC (A. faecalis ATCC 3750) | MIC (S. aureus 195) | MIC (B. subtilis ATCC 6633) | MIC (S. aureus 209p JC-1) | MIC (M. luteus ATCC 9341) | MIC (A. calcoaceticos T59) | MIC (P. cepacia) | MIC (S. aureus Smith) | MIC (K. pneuminiae IFO 3317) | MIC (E. cloacae Nek39) | MIC (S. aureus 167) | MIC (C. freundii ATCC 8090) | MIC (E. coli CSH2(RK1)) | MIC (E. cloacae ATCC 13407) | MIC (E. coli CSH2(RE45)) | MIC (M. morganii IFO 3848) | MIC (E. coli NHIJ JC-2) | MIC (P. vulugaris OX-19) | MIC (S. marcescens No. 16-2) | further results
Nc1nc(/C(=N/O)C(=O)N[C@@H]2C(=O)N3C(C(=O)[O-])=C(C[n+]4cccc(-c5ncno5)c4)CS[C@H]23)cs1 [Ex. 7, 7β-[2-(2-aminothiazol-4-yl)-2-syn-hydroxyiminoacetamido]-3-[3-(1,2,4-oxadiazol-5-yl)pyridinio]methyl-3-cephem-4-carboxylate] | 6.25 µg/mL (≈ 11.8 µM) | 3.13 µg/mL (≈ 5.92 µM) | 6.25 µg/mL (≈ 11.8 µM) | 0.78 µg/mL (≈ 1.48 µM) | 0.39 µg/mL (≈ 0.738 µM) | 0.2 µg/mL (≈ 0.378 µM) | 25 µg/mL (≈ 47.3 µM) | > 100 µg/mL | 0.78 µg/mL (≈ 1.48 µM) | 0.78 µg/mL (≈ 1.48 µM) | 100 µg/mL (≈ 189 µM) | 12.5 µg/mL (≈ 23.7 µM) | 0.78 µg/mL (≈ 1.48 µM) | 1.56 µg/mL (≈ 2.95 µM) | 6.25 µg/mL (≈ 11.8 µM) | 1.56 µg/mL (≈ 2.95 µM) | 0.39 µg/mL (≈ 0.738 µM) | 0.78 µg/mL (≈ 1.48 µM) | 1.56 µg/mL (≈ 2.95 µM) | > 100 µg/mL | MIC (P. aeruginosa AKR17): > 100 µg/mL; MIC (S. marcescens IAM 1184): 0.78 µg/mL (≈ 1.48 µM); MIC (K. pneuminiae No. 42): 1.56 µg/mL (≈ 2.95 µM); MIC (P. mirabilis IFO 3849): 0.78 µg/mL (≈ 1.48 µM); MIC (S. epidemidis IAM 1296): 0.2 µg/mL (≈ 0.378 µM)
Nc1nc(-c2cc[n+](CC3=C(C(=O)[O-])N4C(=O)[C@@H](NC(=O)/C(=N\O)c5csc(N)n5)[C@H]4SC3)cc2)no1 [Ex. 13, 7β-[2-(2-aminothiazol-4-yl)-2-syn-hydroxyiminoacetamido]-3-[4-(5-amino-1,2,4-oxadiazol-3-yl)pyridinio]methyl-3-cephem-4-carboxylate] | 1.56 µg/mL (≈ 2.87 µM) | 1.56 µg/mL (≈ 2.87 µM) | 3.13 µg/mL (≈ 5.76 µM) | 0.2 µg/mL (≈ 0.368 µM) | 0.2 µg/mL (≈ 0.368 µM) | 0.025 µg/mL (≈ 0.046 µM) | 12.5 µg/mL (≈ 23 µM) | > 100 µg/mL | 0.39 µg/mL (≈ 0.718 µM) | 0.2 µg/mL (≈ 0.368 µM) | > 100 µg/mL | 6.25 µg/mL (≈ 11.5 µM) | 0.2 µg/mL (≈ 0.368 µM) | 0.39 µg/mL (≈ 0.718 µM) | 3.13 µg/mL (≈ 5.76 µM) | 0.39 µg/mL (≈ 0.718 µM) | 0.1 µg/mL (≈ 0.184 µM) | 0.2 µg/mL (≈ 0.368 µM) | 0.2 µg/mL (≈ 0.368 µM) | 100 µg/mL (≈ 184 µM) | MIC (P. aeruginosa AKR17): > 100 µg/mL; MIC (S. marcescens IAM 1184): 0.39 µg/mL (≈ 0.718 µM); MIC (K. pneuminiae No. 42): 0.78 µg/mL (≈ 1.44 µM); MIC (P. mirabilis IFO 3849): 0.39 µg/mL (≈ 0.718 µM); MIC (S. epidemidis IAM 1296): 0.1 µg/mL (≈ 0.184 µM)
Nc1nc(/C(=N/O)C(=O)N[C@@H]2C(=O)N3C(C(=O)[O-])=C(C[n+]4ccc(-c5nccs5)cc4)CS[C@H]23)cs1 [Ex. 21, 7β-[2-(2-aminothiazol-4-yl)-2-syn-hydroxyiminoacetamido]-3-[4-(thiazol-2-yl)pyridinio]methyl-3-cephem-4-carboxylate] | 6.25 µg/mL (≈ 11.5 µM) | 0.78 µg/mL (≈ 1.43 µM) | 1.56 µg/mL (≈ 2.87 µM) | 0.2 µg/mL (≈ 0.368 µM) | 0.2 µg/mL (≈ 0.368 µM) | 0.025 µg/mL (≈ 0.046 µM) | 12.5 µg/mL (≈ 23 µM) | > 100 µg/mL | 0.39 µg/mL (≈ 0.717 µM) | 0.1 µg/mL (≈ 0.184 µM) | 50 µg/mL (≈ 92 µM) | 3.13 µg/mL (≈ 5.76 µM) | 0.1 µg/mL (≈ 0.184 µM) | 0.2 µg/mL (≈ 0.368 µM) | 1.56 µg/mL (≈ 2.87 µM) | 0.1 µg/mL (≈ 0.184 µM) | 0.05 µg/mL (≈ 0.092 µM) | 0.1 µg/mL (≈ 0.184 µM) | 0.1 µg/mL (≈ 0.184 µM) | 50 µg/mL (≈ 92 µM) | MIC (P. aeruginosa AKR17): > 100 µg/mL; MIC (S. marcescens IAM 1184): 0.1 µg/mL (≈ 0.184 µM); MIC (K. pneuminiae No. 42): 0.2 µg/mL (≈ 0.368 µM); MIC (P. mirabilis IFO 3849): 0.2 µg/mL (≈ 0.368 µM); MIC (S. epidemidis IAM 1296): 0.1 µg/mL (≈ 0.184 µM)
Nc1nc(-c2cc[n+](CC3=C(C(=O)[O-])N4C(=O)[C@@H](NC(=O)/C(=N\O)c5csc(N)n5)[C@H]4SC3)cc2)n[nH]1 [Ex. 16, 7β-[2-(2-aminothiazol-4-yl)-2-syn-hydroxyiminoacetamido]-3-[4-(3-aminotriazol-5-yl)pyridinio]methyl-3-cephem-4-carboxylate] | 1.56 µg/mL (≈ 2.88 µM) | 1.56 µg/mL (≈ 2.88 µM) | 1.56 µg/mL (≈ 2.88 µM) | 0.2 µg/mL (≈ 0.369 µM) | 0.2 µg/mL (≈ 0.369 µM) | 0.025 µg/mL (≈ 0.0461 µM) | 12.5 µg/mL (≈ 23 µM) | > 100 µg/mL | 0.39 µg/mL (≈ 0.719 µM) | 0.1 µg/mL (≈ 0.184 µM) | > 100 µg/mL | 3.13 µg/mL (≈ 5.77 µM) | 0.2 µg/mL (≈ 0.369 µM) | 0.78 µg/mL (≈ 1.44 µM) | 12.5 µg/mL (≈ 23 µM) | 0.2 µg/mL (≈ 0.369 µM) | 0.05 µg/mL (≈ 0.0922 µM) | 0.1 µg/mL (≈ 0.184 µM) | 0.1 µg/mL (≈ 0.184 µM) | > 100 µg/mL | MIC (P. aeruginosa AKR17): > 100 µg/mL; MIC (S. marcescens IAM 1184): 0.2 µg/mL (≈ 0.369 µM); MIC (K. pneuminiae No. 42): 0.39 µg/mL (≈ 0.719 µM); MIC (P. mirabilis IFO 3849): 0.2 µg/mL (≈ 0.369 µM); MIC (S. epidemidis IAM 1296): 0.1 µg/mL (≈ 0.184 µM)

Reference: EP0641797A1, “Cephem derivatives and antimicrobial agents containing the same” (KATAYAMA SEIYAKUSYO CO. Ltd., priority 1993, dated 1995)
